The CheMixHub ionic liquid set
± gives the uncertainty stated by the source.

Assay: xn = mol fraction of the nth substance listed

COCCn1cc[n+](C)c1.N#C[S-] + CC1COC(=O)O1
101 kPa
Conditions | electrical conductivity [S/m] | viscosity [mPa·s]
288.15 K, x1 = 0.1022 | 0.963 ± 0.019 | 4.19 ± 0.84
288.15 K, x1 = 0.2001 | 1.05 ± 0.021 | 5.1 ± 1
288.15 K, x1 = 0.3021 | 0.967 ± 0.019 | 7.1 ± 1.4
288.15 K, x1 = 0.3996 | 0.843 ± 0.017 | 11 ± 2.2
288.15 K, x1 = 0.5012 | 0.717 ± 0.014 | 15.9 ± 3.2
288.15 K, x1 = 0.6015 | 0.586 ± 0.012 | 22.3 ± 4.5
288.15 K, x1 = 0.7032 | 0.471 ± 0.009 | 34.5 ± 6.9
288.15 K, x1 = 0.8004 | 0.381 ± 0.008 | 50 ± 10
288.15 K, x1 = 0.9002 | 0.286 ± 0.006 | 68 ± 14
288.15 K, x1 = 1 | 0.223 ± 0.005 | 86 ± 17
293.15 K, x1 = 0.1022 | 1.07 ± 0.021 | 3.54 ± 0.71
293.15 K, x1 = 0.2001 | 1.23 ± 0.025 | 4.31 ± 0.86
293.15 K, x1 = 0.3021 | 1.12 ± 0.023 | 6.1 ± 1.2
293.15 K, x1 = 0.3996 | 0.984 ± 0.02 | 9.2 ± 1.8
293.15 K, x1 = 0.5012 | 0.84 ± 0.017 | 12.7 ± 2.5
293.15 K, x1 = 0.6015 | 0.709 ± 0.014 | 17.5 ± 3.5
293.15 K, x1 = 0.7032 | 0.578 ± 0.012 | 26.2 ± 5.2
293.15 K, x1 = 0.8004 | 0.48 ± 0.01 | 37.8 ± 7.6
293.15 K, x1 = 0.9002 | 0.382 ± 0.008 | 51 ± 10
293.15 K, x1 = 1 | 0.315 ± 0.006 | 67 ± 13
298.15 K, x1 = 0.1022 | 1.19 ± 0.024 | 3.05 ± 0.61
298.15 K, x1 = 0.2001 | 1.4 ± 0.028 | 3.71 ± 0.74
298.15 K, x1 = 0.3021 | 1.3 ± 0.026 | 5.3 ± 1.1
298.15 K, x1 = 0.3996 | 1.16 ± 0.023 | 7.8 ± 1.6
298.15 K, x1 = 0.5012 | 1 ± 0.02 | 10.4 ± 2.1
298.15 K, x1 = 0.6015 | 0.844 ± 0.017 | 14 ± 2.8
298.15 K, x1 = 0.7032 | 0.714 ± 0.014 | 20.3 ± 4.1
298.15 K, x1 = 0.8004 | 0.591 ± 0.012 | 29 ± 5.8
298.15 K, x1 = 0.9002 | 0.492 ± 0.01 | 39.7 ± 7.9
298.15 K, x1 = 1 | 0.41 ± 0.008 | 53 ± 11
303.15 K, x1 = 0.1022 | 1.31 ± 0.026 | 2.67 ± 0.54
303.15 K, x1 = 0.2001 | 1.59 ± 0.032 | 3.27 ± 0.65
303.15 K, x1 = 0.3021 | 1.49 ± 0.03 | 4.67 ± 0.94
303.15 K, x1 = 0.3996 | 1.33 ± 0.027 | 6.6 ± 1.3
303.15 K, x1 = 0.5012 | 1.16 ± 0.023 | 8.6 ± 1.7
303.15 K, x1 = 0.6015 | 1.01 ± 0.02 | 11.3 ± 2.3
303.15 K, x1 = 0.7032 | 0.849 ± 0.017 | 16.1 ± 3.2
303.15 K, x1 = 0.8004 | 0.717 ± 0.014 | 22.8 ± 4.6
303.15 K, x1 = 0.9002 | 0.602 ± 0.012 | 31.3 ± 6.3
303.15 K, x1 = 1 | 0.52 ± 0.01 | 42.1 ± 8.4
308.15 K, x1 = 0.1022 | 1.44 ± 0.029 | 2.38 ± 0.48
308.15 K, x1 = 0.2001 | 1.79 ± 0.036 | 2.91 ± 0.58
308.15 K, x1 = 0.3021 | 1.69 ± 0.034 | 4.11 ± 0.82
308.15 K, x1 = 0.3996 | 1.53 ± 0.031 | 5.7 ± 1.1
308.15 K, x1 = 0.5012 | 1.34 ± 0.027 | 7.2 ± 1.4
308.15 K, x1 = 0.6015 | 1.17 ± 0.023 | 9.4 ± 1.9
308.15 K, x1 = 0.7032 | 1 ± 0.02 | 13 ± 2.6
308.15 K, x1 = 0.8004 | 0.867 ± 0.017 | 18.2 ± 3.6
308.15 K, x1 = 0.9002 | 0.749 ± 0.015 | 25 ± 5
308.15 K, x1 = 1 | 0.653 ± 0.013 | 34.4 ± 6.9
313.15 K, x1 = 0.1022 | 1.58 ± 0.032 | 2.14 ± 0.43
313.15 K, x1 = 0.2001 | 2 ± 0.04 | 2.59 ± 0.52
313.15 K, x1 = 0.3021 | 1.91 ± 0.038 | 3.65 ± 0.73
313.15 K, x1 = 0.3996 | 1.75 ± 0.035 | 4.9 ± 0.98
313.15 K, x1 = 0.5012 | 1.53 ± 0.031 | 6.2 ± 1.2
313.15 K, x1 = 0.6015 | 1.36 ± 0.027 | 7.9 ± 1.6
313.15 K, x1 = 0.7032 | 1.19 ± 0.024 | 10.8 ± 2.2
313.15 K, x1 = 0.8004 | 1.02 ± 0.02 | 14.8 ± 3
313.15 K, x1 = 0.9002 | 0.893 ± 0.018 | 20.5 ± 4.1
313.15 K, x1 = 1 | 0.795 ± 0.016 | 28.6 ± 5.7
318.15 K, x1 = 0.1022 | 1.72 ± 0.034 | 1.94 ± 0.39
318.15 K, x1 = 0.2001 | 2.21 ± 0.044 | 2.36 ± 0.47
318.15 K, x1 = 0.3021 | 2.14 ± 0.043 | 3.3 ± 0.66
318.15 K, x1 = 0.3996 | 1.97 ± 0.039 | 4.28 ± 0.86
318.15 K, x1 = 0.5012 | 1.75 ± 0.035 | 5.3 ± 1.1
318.15 K, x1 = 0.6015 | 1.55 ± 0.031 | 6.7 ± 1.3
318.15 K, x1 = 0.7032 | 1.36 ± 0.027 | 9.1 ± 1.8
318.15 K, x1 = 0.8004 | 1.2 ± 0.024 | 12.3 ± 2.5
318.15 K, x1 = 0.9002 | 1.07 ± 0.021 | 17.1 ± 3.4
318.15 K, x1 = 1 | 0.954 ± 0.019 | 23.7 ± 4.8
323.15 K, x1 = 0.1022 | 1.86 ± 0.037 | 1.78 ± 0.36
323.15 K, x1 = 0.2001 | 2.43 ± 0.049 | 2.16 ± 0.43
323.15 K, x1 = 0.3021 | 2.37 ± 0.047 | 2.97 ± 0.6
323.15 K, x1 = 0.3996 | 2.19 ± 0.044 | 3.77 ± 0.76
323.15 K, x1 = 0.5012 | 1.97 ± 0.039 | 4.62 ± 0.92
323.15 K, x1 = 0.6015 | 1.78 ± 0.036 | 5.8 ± 1.2
323.15 K, x1 = 0.7032 | 1.57 ± 0.031 | 7.7 ± 1.5
323.15 K, x1 = 0.8004 | 1.4 ± 0.028 | 10.3 ± 2.1
323.15 K, x1 = 0.9002 | 1.24 ± 0.025 | 14.3 ± 2.9
323.15 K, x1 = 1 | 1.12 ± 0.023 | 20 ± 4
328.15 K, x1 = 0.1022 | 2.02 ± 0.041 | 1.65 ± 0.33
328.15 K, x1 = 0.2001 | 2.67 ± 0.053 | 1.99 ± 0.4
328.15 K, x1 = 0.3021 | 2.62 ± 0.053 | 2.68 ± 0.54
328.15 K, x1 = 0.3996 | 2.43 ± 0.049 | 3.33 ± 0.67
328.15 K, x1 = 0.5012 | 2.21 ± 0.044 | 4.05 ± 0.81
328.15 K, x1 = 0.6015 | 1.99 ± 0.04 | 5 ± 1
328.15 K, x1 = 0.7032 | 1.78 ± 0.036 | 6.6 ± 1.3
328.15 K, x1 = 0.8004 | 1.6 ± 0.032 | 8.8 ± 1.8
328.15 K, x1 = 0.9002 | 1.45 ± 0.029 | 12.1 ± 2.4
328.15 K, x1 = 1 | 1.32 ± 0.026 | 17.2 ± 3.4
333.15 K, x1 = 0.1022 | 2.17 ± 0.043 | 1.54 ± 0.31
333.15 K, x1 = 0.2001 | 2.9 ± 0.058 | 1.85 ± 0.37
333.15 K, x1 = 0.3021 | 2.88 ± 0.058 | 2.42 ± 0.48
333.15 K, x1 = 0.3996 | 2.68 ± 0.054 | 3 ± 0.6
333.15 K, x1 = 0.5012 | 2.45 ± 0.049 | 3.57 ± 0.71
333.15 K, x1 = 0.6015 | 2.24 ± 0.045 | 4.38 ± 0.88
333.15 K, x1 = 0.7032 | 2.02 ± 0.04 | 5.8 ± 1.2
333.15 K, x1 = 0.8004 | 1.83 ± 0.037 | 7.5 ± 1.5
333.15 K, x1 = 0.9002 | 1.65 ± 0.033 | 10.4 ± 2.1
333.15 K, x1 = 1 | 1.51 ± 0.03 | 14.8 ± 3

CC[n+]1ccn(C)c1.[Cl-] + CC#N
Conditions | viscosity [mPa·s]
373 K, 100 kPa, x2 = 0.284 | 12 ± 5

CC[n+]1ccn(C)c1C.F[B-](F)(F)F + CC#N
viscosity [mPa·s], 101.3 kPa
Conditions | 293.15 K | 298.15 K | 303.15 K | 308.15 K | 313.15 K | 318.15 K | 323.15 K | 328.15 K | 333.15 K
x1 = 0.02106 | 0.518 ± 0.044 | 0.505 ± 0.043 | 0.476 ± 0.04 | 0.456 ± 0.039 | 0.442 ± 0.037 | 0.428 ± 0.036 | 0.414 ± 0.035 | 0.401 ± 0.034 | 0.389 ± 0.033
x1 = 0.04617 | 0.648 ± 0.055 | 0.618 ± 0.052 | 0.59 ± 0.05 | 0.566 ± 0.048 | 0.543 ± 0.046 | 0.52 ± 0.044 | 0.501 ± 0.042 | 0.483 ± 0.041 | 0.465 ± 0.039
x1 = 0.07663 | 0.846 ± 0.072 | 0.808 ± 0.068 | 0.768 ± 0.065 | 0.732 ± 0.062 | 0.698 ± 0.059 | 0.667 ± 0.056 | 0.636 ± 0.054 | 0.608 ± 0.051 | 0.583 ± 0.049
x1 = 0.1143 | 1.116 ± 0.095 | 1.051 ± 0.089 | 0.995 ± 0.084 | 0.943 ± 0.08 | 0.893 ± 0.076 | 0.85 ± 0.072 | 0.809 ± 0.069 | 0.769 ± 0.065 | 0.733 ± 0.062
x1 = 0.1622 | 1.68 ± 0.14 | 1.58 ± 0.13 | 1.48 ± 0.13 | 1.39 ± 0.12 | 1.31 ± 0.11 | 1.24 ± 0.11 | 1.17 ± 0.099 | 1.105 ± 0.094 | 1.049 ± 0.089
x1 = 0.2251 | 2.63 ± 0.22 | 2.44 ± 0.21 | 2.26 ± 0.19 | 2.11 ± 0.18 | 1.97 ± 0.17 | 1.84 ± 0.16 | 1.73 ± 0.15 | 1.62 ± 0.14 | 1.53 ± 0.13
x1 = 0.3112 | 4.25 ± 0.36 | 3.81 ± 0.33 | 3.48 ± 0.3 | 3.2 ± 0.27 | 2.94 ± 0.25 | 2.71 ± 0.23 | 2.51 ± 0.21 | 2.33 ± 0.2 | 2.16 ± 0.18
x1 = 0.4365 | 8.05 ± 0.68 | 7.11 ± 0.6 | 6.37 ± 0.54 | 5.75 ± 0.49 | 5.18 ± 0.44 | 4.7 ± 0.4 | 4.27 ± 0.36 | 3.91 ± 0.33 | 3.57 ± 0.3
